From US9107852B2, “Uses of agonists of delta opioid receptor in cosmetic and dermocosmetic field” (Induchem Holding AG, priority 2012, dated 2015)
Ends that are not written are not given here.

Tested on: opioid receptor delta (DOR)
Test: Scoring of DOR1 expression in RHE stimulated with cytokines
Format: cell-based, human
Conditions: JAK inhibitor I tested at 10 μM
Description: In the present study, the effects of a peptide (YPLDLF, SEQ ID No 1) on the expression of opioid receptor delta (DOR) were researched on a reconstructed human epidermis (RHE) model under basal or stimulated conditions. More precisely, the RHE were stimulated by a mix of cytokines (IL-17+OSM+TNF-α) able to induce a strong inflammatory profile and a psoriatic phenotype in keratinocytes.
Reconstructed human epidermis (RHE) of 11 days old was prepared according to a derived method described by Poumay et al. (2004). These RHE were cultivated at 37° C. and 5% of CO2 in a specific maintenance medium.
The RHE treated under basal conditions were placed in assay medium containing or not (non-stimulated control) the peptide solutions and incubated for 54 hours. For inflammatory conditions, the RHE were placed in assay medium containing or not (stimulated control) the peptide solutions or the reference […] at 10 μM) and pre-incubated for 6 hours. The RHE were then stimulated with a mix of cytokines (IL-17+OSM+TNF-α at 3 ng/ml) and incubated for 48 hours. All experimental conditions were performed in n=3.
At the end of incubation, the supernatants were collected and the RHE were washed in phosphate buffered saline solution (PBS) for immunohistofluorescence analysis. […]

## YPLDLF [YPLDLF]
  inhibitory effect of the cytokine mix on OPRD1 expression: reversed
